{"source": "patent US10858335B2", "about": "(Rigel Pharmaceuticals, Inc., priority 2014, dated 2020)"}
{"system": "GDF8 signaling (p-SMAD-3 (Ser423/425))", "assay": "AlphaScreen SureFire SMAD3 (p-Ser423/425) assay, GDF8-stimulated cells (GDF pSMAD)", "assay_type": "cell-based", "settings": "GDF8-stimulated pSMAD3, MPC11; tested as the salt form given; read-out: GDF pSMAD (MPC11) (μM), inhibition of GDF8 signaling", "units": {"IC50": "µM"}}
{"smiles": "CN(C)CCNc1ncnc2ccc(-c3cccnc3-c3cc(Cl)ccc3F)cc12", "note": "[compound 1093]", "IC50": 0.2}
{"system": "GDF8 signaling (p-SMAD-3 (Ser423/425))", "assay": "AlphaScreen SureFire SMAD3 (p-Ser423/425) assay, GDF8-stimulated cells (GDF pSMAD)", "assay_type": "cell-based", "settings": "Mus musculus, MPC-11, GDF8-stimulated pSMAD3, MPC11; tested as the salt form given; read-out: GDF pSMAD (MPC11) (μM), inhibition of GDF8 signaling", "units": {"IC50": "µM"}}
{"smiles": "Nc1ncnc2ccc(-c3cccnc3-c3ccc(F)c(Cl)c3F)cc12", "note": "[compound 978, 6-(2-(3-chloro-2,4-difluorophenyl)pyridin-3-yl)quinazolin-4-amine]", "IC50": 1.87}
{"smiles": "Nc1ncnc2ccc(-c3cccnc3-c3cc(O)c(F)cc3Cl)cc12", "note": "[compound 1020, 5-(3-(4-aminoquinazolin-6-yl)pyridin-2-yl)-4-chloro-2-fluorophenol]", "IC50": 4.77}
{"smiles": "Cc1cc(F)c(C(F)F)cc1-c1ncccc1-c1ccc2ncnc(N)c2c1", "note": "[compound 1025, 6-(2-(5-(difluoromethyl)-4-fluoro-2-methylphenyl)pyridin-3-yl)quinazolin-4-amine]", "IC50": 0.958}
{"smiles": "Cn1ccc(Nc2ncnc3ccc(-c4cccnc4-c4cc(Cl)ccc4F)cc23)n1", "note": "[compound 1032, 6-(2-(5-chloro-2-fluorophenyl)pyridin-3-yl)-N-(1-methyl-1H-pyrazol-3-yl)quinazolin-4-amine]", "IC50": 1.09}
{"system": "GDF8 signaling (p-SMAD-3 (Ser423/425))", "assay": "AlphaScreen SureFire SMAD3 (p-Ser423/425) assay, GDF8-stimulated cells (GDF pSMAD)", "assay_type": "cell-based", "settings": "Mus musculus, MPC-11, MPC11; GDF8-stimulated; p-SMAD3 AlphaScreen; read-out: GDF pSMAD (MPC11) (inhibition of GDF8 signaling)", "units": {"IC50": "µM"}}
{"smiles": "Cc1cnc(-c2cccc(Cl)c2)c(-c2ccn3ncnc3c2)c1", "note": "[compound 868, 7-(2-(3-Chlorophenyl)-5-methylpyridin-3-yl)-[1,2,4]triazolo[1,5-a]pyridine]", "IC50": 0.404}
{"smiles": "N#Cc1cc(-c2ncccc2-c2cnc3[nH]ncc3c2)ccc1F", "note": "[Compound 158, 5-(3-(1H-Pyrazolo[3,4-b]pyridin-5-yl)pyridin-2-yl)-2-fluorobenzonitrile]", "IC50": 1.86}
{"smiles": "Nc1noc2cc(-c3cccnc3-c3cccc(Cl)c3)ccc12", "note": "[compound 798, 6-(2-(3-Chlorophenyl)pyridin-3-yl)benzo[d]isoxazol-3-amine]", "IC50": 2.62}
{"smiles": "Cc1cccc(-c2cccnc2-c2ccc3nc[nH]c3c2)n1", "note": "[compound 521, 6-(6-Methyl-[2,3′-bipyridin]-2′-yl)-1H-benzo[d]imidazole]", "IC50": 8.06}
{"smiles": "Cc1cc(-c2ncccc2-c2ccc3cnc(C(=O)NCCN4CCOCC4)n3c2)ccc1F", "note": "[compound 271, 6-(2-(4-Fluoro-3-methylphenyl)pyridin-3-yl)-N-(2-morpholinoethyl)imidazo[1,5-a]pyridine-3-carboxamide]", "IC50": 4.44}
{"smiles": "Cc1cc(-c2ncccc2-c2ccc3ncc(C(=O)NCCC45CCCN4CCC5)n3c2)ccc1F", "note": "[compound 803, 6-(2-(4-Fluoro-3-methylphenyl)pyridin-3-yl)-N-(2-(tetrahydro-1H-pyrrolizin-7a(5H)-yl)ethyl)imidazo[1,2-a]pyridine-3-carboxamide]", "IC50": 2.26}
{"smiles": "Cc1cc(-c2ncc(NCc3ccc(N4CCC(O)CC4)cc3)cc2-c2ccc3ncsc3c2)ccc1F", "note": "[compound 374, 1-(4-(((5-(Benzo[d]thiazol-6-yl)-6-(4-fluoro-3-methylphenyl)pyridin-3-yl)amino)methyl)phenyl)piperidin-4-ol]", "IC50": 0.495}
{"smiles": "Cc1cnc(-c2cc(Cl)ccc2F)c(-c2ccn3ncnc3c2)c1", "note": "[compound 866, 7-(2-(5-Chloro-2-fluorophenyl)-5-methylpyridin-3-yl)-[1,2,4]triazolo[1,5-a]pyridine]", "IC50": 0.251}
{"smiles": "Cc1cc(-c2ncc(NC(=O)N3CCOCC3)cc2-c2ccc3nccn3c2)ccc1F", "note": "[compound 219, N-(6-(4-Fluoro-3-methylphenyl)-5-(imidazo[1,2-a]pyridin-6-yl)pyridin-3-yl)morpholine-4-carboxamide]", "IC50": 6.77}
{"smiles": "Cc1cc(-c2ncccc2-c2ccc3ncc(C(=O)NCCN4CCCC4)n3c2)ccc1F", "note": "[compound 610, 6-(2-(4-Fluoro-3-methylphenyl)pyridin-3-yl)-N-(2-(pyrrolidin-1-yl)ethyl)imidazo[1,2-a]pyridine-3-carboxamide]", "IC50": 0.648}
{"smiles": "Cc1cccc(-c2ncccc2-c2ccc3ncn(CCN4CCOCC4)c3c2)c1", "note": "[Compound 36, 1-(2-Morpholinoethyl)-6-(2-m-tolylpyridin-3-yl)-1H-benzo[d]imidazole]", "IC50": 19.7}
{"smiles": "Cc1cc(-c2ncc(N)cc2-c2ccc3ncsc3c2)ccc1F", "note": "[Compound 18, 5-(Benzo[d]thiazol-6-yl)-6-(4-fluoro-3-methylphenyl)pyridin-3-amine]", "IC50": 0.142}
{"smiles": "Cc1cc(-c2ncccc2-c2ccc3ncnc(NCC4CCN(C)CC4)c3c2)ccc1F", "note": "[compound 421, 6-(2-(4-Fluoro-3-methylphenyl)pyridin-3-yl)-N-((1-methylpiperidin-4-yl)methyl)quinazolin-4-amine]", "IC50": 1.4}
{"smiles": "Fc1ccc(-c2ncccc2-c2ccc3[nH]ncc3c2)cc1F", "note": "[Compound 62, 5-(2-(3,4-Difluorophenyl)pyridin-3-yl)-1H-indazole]", "IC50": 0.804}
{"smiles": "Fc1cc(F)cc(-c2ncccc2-c2ccc3ncsc3c2)c1", "note": "[compound 660, 6-(2-(3,5-Difluorophenyl)pyridin-3-yl)benzo[d]thiazole]", "IC50": 2.24}
{"smiles": "Cc1ccc(C(F)(F)F)cc1-c1ncccc1-c1ccn2ncnc2c1", "note": "[compound 878, 7-(2-(2-Methyl-5-(trifluoromethyl)phenyl)pyridin-3-yl)-[1,2,4]triazolo[1,5-a]pyridine]", "IC50": 10.2}
{"smiles": "Cc1cc(-c2ncccc2-c2cc(C(=O)O)c3[nH]ncc3c2)ccc1F", "note": "[compound 195, 5-(2-(4-Fluoro-3-methylphenyl)pyridin-3-yl)-1H-indazole-7-carboxylic acid]", "IC50": 9.52}
{"smiles": "Cc1cc(-c2ncccc2-c2ccc3nccc(N)c3c2)ccc1F", "note": "[compound 836, 6-(2-(4-Fluoro-3-methylphenyl)pyridin-3-yl)quinolin-4-amine]", "IC50": 5.94}
{"smiles": "Nc1noc2cc(-c3cccnc3-c3ccc(F)c(Cl)c3)ccc12", "note": "[compound 797, 6-(2-(3-Chloro-4-fluorophenyl)pyridin-3-yl)benzo[d]isoxazol-3-amine]", "IC50": 3.81}
{"smiles": "Cc1cccc(-c2ncccc2-c2ccc3nc[nH]c3c2)c1", "note": "[Compound 178, 6-(2-m-Tolylpyridin-3-yl)-1H-benzo[d]imidazole]", "IC50": 0.187}
{"smiles": "Fc1ccc(-c2ncccc2-c2ccn3nccc3n2)c(F)c1Cl", "note": "[compound 965, 5-(2-(3-Chloro-2,4-difluorophenyl)pyridin-3-yl)pyrazolo[1,5-a]pyrimidine]", "IC50": 5.19}
{"smiles": "Cc1cc(-c2ncccc2-c2ccc3ncc(C(=O)NCC45CCCN4CCC5)n3c2)ccc1F", "note": "[compound 802, 6-(2-(4-Fluoro-3-methylphenyl)pyridin-3-yl)-N-((tetrahydro-1H-pyrrolizin-7a(5H)-yl)methyl)imidazo[1,2-a]pyridine-3-carboxamide]", "IC50": 5.83}
{"smiles": "Cc1cc(-c2ncccc2-c2ccc3ncnc(OCCCN4CCN(C)CC4)c3c2)ccc1F", "note": "[compound 434, 6-(2-(4-Fluoro-3-methylphenyl)pyridin-3-yl)-4-(3-(4-methylpiperazin-1-yl)propoxy)quinazoline]", "IC50": 1.49}
{"smiles": "COc1cc(-c2cnc3ccc(-c4cccnc4-c4cccc(C)c4)cn23)cc(OC)c1OC", "note": "[compound 578, 6-(2-(m-Tolyl)pyridin-3-yl)-3-(3,4,5-trimethoxyphenyl)imidazo[1,2-a]pyridine]", "IC50": 2.23}
{"smiles": "Cc1cc(-c2ncccc2-c2ccc3ncc(C(=O)NCCN4CCN(C)CC4)n3c2)ccc1F", "note": "[compound 590, 6-(2-(4-Fluoro-3-methylphenyl)pyridin-3-yl)-N-(2-(4-methylpiperazin-1-yl)ethyl)imidazo[1,2-a]pyridine-3-carboxamide]", "IC50": 0.514}
{"smiles": "Cc1cnc(-c2ccc(F)c(Cl)c2)c(-c2ccn3ncnc3c2)c1", "note": "[compound 864, 7-(2-(3-Chloro-4-fluorophenyl)-5-methylpyridin-3-yl)-[1,2,4]triazolo[1,5-a]pyridine]", "IC50": 1.54}
{"smiles": "COc1cnc(-c2cccc(Cl)c2)c(-c2ccn3ncnc3c2)c1", "note": "[compound 855, 7-(2-(3-Chlorophenyl)-5-methoxypyridin-3-yl)-[1,2,4]triazolo[1,5-a]pyridine]", "IC50": 3.44}
{"smiles": "Cc1cc(-c2ncccc2-c2ccc3ncc(C(=O)Nc4ccncc4)n3c2)ccc1F", "note": "[compound 654, 6-(2-(4-Fluoro-3-methylphenyl)pyridin-3-yl)-N-(pyridin-4-yl)imidazo[1,2-a]pyridine-3-carboxamide]", "IC50": 0.553}
{"smiles": "FC(F)(F)Oc1cccc(-c2ncccc2-c2ccc3ncnn3c2)c1", "note": "[compound 780, 6-(2-(3-(Trifluoromethoxy)phenyl)pyridin-3-yl)-[1,2,4]triazolo[1,5-a]pyridine]", "IC50": 0.73}
{"smiles": "Fc1ccc(-c2ncccc2-c2ccc3nccn3c2)cc1", "note": "[Compound 53, 6-(2-(4-Fluorophenyl)pyridin-3-yl)imidazo[1,2-a]pyridine]", "IC50": 13.4}
{"smiles": "Clc1cccc(-c2ncccc2-c2ccc3nc[nH]c3c2)c1", "note": "[compound 783]", "IC50": 0.231}
{"smiles": "[2H]C([2H])([2H])c1cccc(-c2ncccc2-c2ccn3nccc3n2)c1", "note": "[compound 602, 5-(2-(3-(Methyl-d3)phenyl)pyridin-3-yl)pyrazolo[1,5-a]pyrimidine]", "IC50": 0.0681}
{"smiles": "CCn1ncc2cc(-c3cccnc3-c3cccc(C)c3)ccc21", "note": "[Compound 185, 1-Ethyl-5-(2-m-tolylpyridin-3-yl)-1H-indazole]", "IC50": 8.86}
{"smiles": "Clc1cccc(-c2ncccc2-c2ccc3nccn3n2)c1", "note": "[compound 936, 6-(2-(3-Chlorophenyl)pyridin-3-yl)imidazo[1,2-b]pyridazine]", "IC50": 0.228}
{"smiles": "N#Cc1cc(-c2ncccc2-c2ccc3ncc(C#N)n3c2)ccc1F", "note": "[compound 628, 6-(2-(3-Cyano-4-fluorophenyl)pyridin-3-yl)imidazo[1,2-a]pyridine-3-carbonitrile]", "IC50": 1.71}
{"smiles": "Clc1cccc(-c2ncccc2-c2ccn3nccc3n2)c1", "note": "[compound 916, 5-(2-(3-Chlorophenyl)pyridin-3-yl)pyrazolo[1,5-a]pyrimidine]", "IC50": 0.104}
{"smiles": "Cc1cc(-c2ncc(N)cc2-c2ccc3[nH]ncc3c2)ccc1F", "note": "[Compound 17, 6-(4-Fluoro-3-methylphenyl)-5-(1H-indazol-5-yl)pyridin-3-amine]", "IC50": 0.336}
{"smiles": "Cc1cc(-c2ncccc2-c2ccc3ncc(C(=O)NCC(O)CO)n3c2)ccc1F", "note": "(stereo not shown) [compound 613, N-(2,3-Dihydroxypropyl)-6-(2-(4-fluoro-3-methylphenyl)pyridin-3-yl)imidazo[1,2-a]pyridine-3-carboxamide]", "IC50": 0.624}
